# Results as given in BindingDB's records for PubMed 33569941 (n/a, 2021).
# Target: Tumor necrosis factor (Homo sapiens, UniProt P01375)
# Assay: Inhibition of human TNF-alpha secretion stimulated by LPS
# Chain of Tumor necrosis factor (P01375 whole entry): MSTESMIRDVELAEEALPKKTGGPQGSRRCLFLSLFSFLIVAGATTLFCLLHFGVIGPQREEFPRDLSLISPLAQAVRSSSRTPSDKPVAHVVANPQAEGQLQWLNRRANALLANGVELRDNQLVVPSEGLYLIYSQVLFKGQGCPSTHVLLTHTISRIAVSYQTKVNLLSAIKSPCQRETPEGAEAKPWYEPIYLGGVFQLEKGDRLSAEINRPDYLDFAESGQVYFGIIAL
smiles,measurement,value
Cc1ccc(Cl)cc1Nc1cc(Cl)c2nonc2c1[N+](=O)[O-],EC50,0.3 µM
